“Also recorded” adds a separate entry of the source. Blank lines part the entries; values can stand above or below the molecule they belong to.
Legend:
cultured podocytes [1] = experiment: Multiwell Boyden chamber assay, random podocyte migration on vitronectin; assay type: cell-based, mouse; conditions: wild type podocytes, treatment for 24 h
Description: Podocyte migration was analyzed using a 12-well chemotaxis chamber (Neuro Probe) according to the manufacturer's protocol. In brief, differentiated podocytes were treated with 50 μg/ml of LPS or PAN for 24 h and then harvested for the migration assay. Bottom plates were coated with vitronectin or type I collagen, while upper plates were loaded with equal number of cells (5×10^4) suspended in medium. The chamber was incubated at 37° C. for 4 h before the membrane was taken out and stained with diamidino phenylindole (DAPI). The average number of migrated cells was counted in four fields in six independent experiments.

uPAR = experiment: Induction of uPAR in cultured podocytes, relative quantification; assay type: cell-based, mouse
cultured podocytes [2] = experiment: Scrape wound (wound healing) assay, directed podocyte motility; assay type: cell-based, mouse; conditions: for directed podocyte motility into the wound track: wild type podocytes, vitronectin-coated surface, treatment for 24 h
Description: To study the directional movement of podocytes, a wound healing assay was performed. Briefly, podocytes were seeded on Vn or type I collagen coated cover-slips and cultured for 10 days at 37° C. before treated with LPS or PAN for 12-48 h. To create a scrape wound approximately 0.1 cm wide, the narrow end of a P1000 pipette tip was perpendicularly pushed through the monolayer. Then, cover-slips were washed twice with PBS and incubated in medium. After incubation, cells were fixed with 2% PFA and stained with DAPI for analysis. The cell migratory distance was calculated by averaging the distance from the wound edge to the maximally migrated cell in five distinct border zones.

αvβ3 integrin [3] = target: T1, αvβ3 integrin (Mus musculus, UniProt O54890+P43406); experiment: Recovery of already existing LPS-induced proteinuria, urine Bradford assay; assay type: in vivo; conditions: B6 mice, LPS at 0 and 24 h; 25 mg/kg body weight through tail vein 48 h after first injection
T1 construct: from tissue; host or cells: living wild type (C57BL/6, 'B6') mice
T1 sequence (P43406 31-1044): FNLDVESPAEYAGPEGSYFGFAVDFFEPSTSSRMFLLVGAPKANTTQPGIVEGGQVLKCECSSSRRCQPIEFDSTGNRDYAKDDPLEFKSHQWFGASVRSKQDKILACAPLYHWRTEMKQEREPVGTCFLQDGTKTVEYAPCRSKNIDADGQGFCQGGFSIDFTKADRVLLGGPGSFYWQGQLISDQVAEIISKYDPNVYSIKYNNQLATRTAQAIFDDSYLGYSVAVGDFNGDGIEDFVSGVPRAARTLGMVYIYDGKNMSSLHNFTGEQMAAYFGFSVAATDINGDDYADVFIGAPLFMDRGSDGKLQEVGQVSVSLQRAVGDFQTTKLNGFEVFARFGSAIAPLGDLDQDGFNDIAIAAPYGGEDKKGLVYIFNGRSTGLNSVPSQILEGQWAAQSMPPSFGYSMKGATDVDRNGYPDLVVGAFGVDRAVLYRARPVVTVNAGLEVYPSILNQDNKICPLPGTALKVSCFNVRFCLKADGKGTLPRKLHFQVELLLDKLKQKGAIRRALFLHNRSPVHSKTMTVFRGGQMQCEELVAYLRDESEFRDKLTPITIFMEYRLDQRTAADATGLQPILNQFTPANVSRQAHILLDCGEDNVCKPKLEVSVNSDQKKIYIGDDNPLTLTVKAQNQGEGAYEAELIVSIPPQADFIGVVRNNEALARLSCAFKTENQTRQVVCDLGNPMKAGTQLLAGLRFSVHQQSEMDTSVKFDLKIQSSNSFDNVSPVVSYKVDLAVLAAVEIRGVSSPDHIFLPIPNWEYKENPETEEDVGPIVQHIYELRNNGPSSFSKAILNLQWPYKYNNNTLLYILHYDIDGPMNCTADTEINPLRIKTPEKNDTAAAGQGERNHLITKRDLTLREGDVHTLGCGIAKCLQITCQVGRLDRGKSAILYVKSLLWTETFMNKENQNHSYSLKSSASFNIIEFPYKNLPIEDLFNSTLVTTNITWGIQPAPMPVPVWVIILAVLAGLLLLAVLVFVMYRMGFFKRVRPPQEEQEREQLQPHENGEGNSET
T1 sequence (O54890 26-787): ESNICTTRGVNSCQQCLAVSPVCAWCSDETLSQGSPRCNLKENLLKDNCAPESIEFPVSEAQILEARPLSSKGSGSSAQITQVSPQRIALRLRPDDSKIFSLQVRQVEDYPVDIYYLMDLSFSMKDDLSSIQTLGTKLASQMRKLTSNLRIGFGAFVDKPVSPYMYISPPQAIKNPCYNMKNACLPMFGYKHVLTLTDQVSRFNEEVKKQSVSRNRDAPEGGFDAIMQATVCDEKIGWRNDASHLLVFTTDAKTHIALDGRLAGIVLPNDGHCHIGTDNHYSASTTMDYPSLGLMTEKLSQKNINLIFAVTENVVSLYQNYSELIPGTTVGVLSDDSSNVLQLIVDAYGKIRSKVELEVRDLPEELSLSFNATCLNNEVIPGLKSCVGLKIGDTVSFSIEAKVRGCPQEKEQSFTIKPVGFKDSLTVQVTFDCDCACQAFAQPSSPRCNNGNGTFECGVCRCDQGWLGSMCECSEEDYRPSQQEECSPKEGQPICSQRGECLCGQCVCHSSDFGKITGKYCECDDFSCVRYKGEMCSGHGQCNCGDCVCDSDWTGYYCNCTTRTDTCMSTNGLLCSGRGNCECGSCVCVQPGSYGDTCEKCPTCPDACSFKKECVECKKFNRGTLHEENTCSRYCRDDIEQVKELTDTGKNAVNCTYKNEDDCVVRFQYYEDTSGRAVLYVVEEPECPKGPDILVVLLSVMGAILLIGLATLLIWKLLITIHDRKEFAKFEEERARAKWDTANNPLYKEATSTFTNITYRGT
Description: B6 mice are injected twice (0, 24 h) with LPS to induce and maintain proteinuria. 48 h after first injection, S247 (n=6) is administered (25 mg/kg body weight) through tail vein. Control (n=5) received the same amount of PBS. 0, 48 h, 66 h urine was collected for Braford assay.

β3 integrin = experiment: Active β3 integrin (AP5 staining) in LPS treated cultured podocytes; assay type: cell-based, mouse; conditions: disruption of lipid rafts
Excerpt: Cultured podocytes were immunolabeled as described previously^8.

[4] = target: β3 integrin on cultured mouse podocytes (mouse) (UniProt O54890); experiment: flow cytometry, LPS treated mouse podocytes, 5 µg/ml AP5, 2.0 mM Ca2+
[5] = target: β3 integrin on cultured mouse podocytes (mouse) (UniProt O54890); experiment: flow cytometry, LPS treated mouse podocytes, 5 µg/ml AP5, 0.1 mM Ca2+
[6] = target: β3 integrin on cultured mouse podocytes (mouse) (UniProt O54890); experiment: flow cytometry, LPS treated mouse podocytes, 5 µg/ml AP5, 0.4 mM Ca2+
[7] = target: β3 integrin on cultured mouse podocytes (mouse) (UniProt O54890); experiment: flow cytometry, LPS treated mouse podocytes, 5 µg/ml AP5, 1 mM EDTA
[8] = target: β3 integrin on cultured mouse podocytes (mouse) (UniProt O54890); experiment: flow cytometry, LPS treated mouse podocytes, 5 µg/ml AP5, 1.0 mM Ca2+
Rac1 = experiment: GTPase activity assay in isolated glomeruli (Rac1); assay type: in vivo, mouse; conditions: wild type mice co-injected with LPS and RGDfV (every 8 hours for 24 hours)
Description: (§1) Rho family small GTPase activity in glomerular lysates was measured by Rho/Rac/Cdc42 activation assay kit (Cell Biolabs, INC.) following the manufacturer's protocol. Isolated glomeruli from wild type and uPAR^−/− mice, some of them treated with LPS (t=0) and with RGDfV (SEQ ID NO: 1) every 8 hours for 24 hours were obtained by standard sieve technique^25. 2 mg of glomerular lysate were used to prepare for positive or negative control by incubating with 10 μl of GTPγS or GDP respectively. For small GTPase pull-down assay, the same amount (2 mg) of glomerulus lysates from different treatments were incubated with 40 μl of Rhotekin RBD or PAK PBD agarose bead slurry for 1 h at 4° C. After washing 3 times with 1× assay buffer, beads were harvested and resuspended in LDS sample buffer. Samples were heated for 10 min at 70° C. before SDS-PAGE. After electrophoresis and protein transfer, the membranes were blocked with 5% milk, and incubated with anti-Rho, anti-Rac, and anti-Cdc42 antibodies for 1 h, followed by second antibody incubation and detection with ECL (Pierce). For loading control, 100 μg of glomerular lysates from different treatments were applied and immunoblotted with the same anti-Rho, anti-Cdc42 and anti-Rac antibodies as used above.

cdc42 = experiment: GTPase activity assay in isolated glomeruli (cdc42); assay type: in vivo, mouse; conditions: wild type mice co-injected with LPS and RGDfV (every 8 hours for 24 hours)
Description: as §1

αvβ3 integrin [9] = target: T1, αvβ3 integrin; assay type: in vivo; conditions: mice, LPS only (200 μg intraperitoneally), urine 24 h after LPS
Description: Immediately after the first injection, 200 μg of LPS was injected intraperitoneally into each mouse to induce proteinuria. 24 h after LPS injection, urine was collected for Braford assay.

[10] = system: wild type and uPAR−/− mice; experiment: LPS mouse model of proteinuria in wild type and uPAR−/− mice, urine Bradford assay; assay type: in vivo; parameters: unit not given beside the values; conditions: LPS injection
Excerpt: All animal studies were approved by the Subcommittee on Research Animal Care of the Massachusetts General Hospital. uPAR^−/− mice and uPA^−/− mice on a mixed background of 75% C57BL/6 and 25% 129 Swiss were obtained from University of Leuven, Belgium; Vn^−/− mice (C57BL/6) were obtained from Dr. David Ginsburg, University of Michigan; β3 integrin^−/− mice (C57BL/6) were obtained from Dr. Raghuram Kalluri, Boston. C57BL/6 and 129 Swiss mice were purchased from Jackson Laboratory (Bar Harbor). The LPS mouse model was utilized as previously described^9. The induction of B7-1 was used as a control for the effectiveness of LPS. Rat PAN nephrosis model was set up by a single intraperitoneal injection of puromycin (15 mg/100 g of body weight, Sigma-Aldrich) into Sprague-Dawley rats as described before^27. NZB/W F1 mice were purchased from the Jackson Laboratory and analyzed after 20 weeks when proteinuria and Lupus glomerulonephritis were present. As diabetic nephropathy rat model, we used Sprague Dawley rats treated with Streptozotocin. Hyperglycaemic state was induced by an intraperitoneal Streptozotocin injection (50-70 mg/kg body weight, in citrate buffer 10 mmol/L, pH 4.5). The hyperglycaemic state developed within 48 h and was maintained during the lifetime of the animals. No insulin administration was required. Glycosuria was evaluated with test strips of the Uriscan TM (YD Diagnostics, VWR, Montréal, QC, Canada) and glycaemia with the AccuSoft Monitoring System (Roche Diagnostics, Laval, QC, Canada). At the end of the study, glycaemia values were 4.3±0.53 and 8.5±0.7 mmol/L for 3 months-old and 12 months-old normoglycaemic animals, respectively, and 21.2±0.9 and 33.9±4.0 mmol/L for 3 months-old and 12 months-old diabetic animals, respectively.
uPAR-cDNA plasmids were introduced into uPAR^−/− mouse using the TransIT in vivo gene delivery system (Mims) as described previously^32,8. The following cDNAs and vector constructs were used for gene delivery: uPAR; mutated uPAR D262A^38 (kind gift from Y Wei and H A Chapman, University of California, San Francisco); β3 integrin and the constitutively active form of β3 integrin, D616-690 (β3Δ616-690)^48; Podocin promoter vector p2.5^33 (a kind gift from Dr. L B Holzman, University of Michigan) for Pod-uPAR; ICAM-2 promoter vector^34 for ICAM-2-uPAR. Tissues were analyzed for expression as described previously^8.

Molecule: CN(C)c1ncnc2c1ncn2[C@@H]1O[C@H](CO)[C@@H](N)[C@H]1O [PAN, puromycin aminonucleoside]
- podocyte migration (migrated podocytes) (cultured podocytes [1]): 67±4.9
- Relative quantification of uPAR induction (uPAR): 0.61±0.10
- directed podocyte motility into the wound track (cultured podocytes [2]): 79.31±3.72

- already existing proteinuria; urinary protein at timepoint 66 h (αvβ3 integrin [3]): Reduction of urinary protein
Molecule: O=C(O)C[C@H](NC(=O)CNC(=O)c1cncc(NC2=NCC(O)CN2)c1)c1cc(Cl)cc(Br)c1O (stereo partly drawn) [S247]

Molecule: Methyl-β-cyclodextrin
- activation of β3 integrin in response to LPS (AP5 staining) (β3 integrin): abrogated

- Fluorescent intensity units (fluorescent intensity units) [4]: 312
- Fluorescent intensity units (fluorescent intensity units) [5]: 3060
- Fluorescent intensity units (fluorescent intensity units) [6]: 1640
- Fluorescent intensity units (fluorescent intensity units) [7]: 3020
- Fluorescent intensity units (fluorescent intensity units) [8]: 535
Molecule: anti-active β3 integrin antibody AP5 (GTI)

- induction of active Rac1 in glomeruli (Rac1): inhibited
- induction of active cdc42 in glomeruli (cdc42): inhibited
Molecule: cyclo-[Arg-Gly-Asp-D-Phe-Val] [cyclo-RGDfV]

Molecule: lipopolysaccharide [LPS]
- podocyte migration (migrated podocytes) (cultured podocytes [1]): 72±5.5
- Relative quantification of uPAR induction (uPAR): 0.49±0.06
- proteinuria (urine Bradford assay) (αvβ3 integrin [9]): 0.924±0.1055
- directed podocyte motility into the wound track (cultured podocytes [2]): 85.34±4.1
- proteinuria (urine Bradford assay) ([10]; uPAR−/− mice reconstituted with uPAR-cDNA): 0.92±0.46
- proteinuria (urine Bradford assay) ([10]; uPAR−/− mice which received control plasmids): 0.26±0.15
- proteinuria (urine Bradford assay) ([10]; uPAR−/− mice): 0.32±0.14
- proteinuria (urine Bradford assay) ([10]; wild type mice): 0.82±0.32

Molecule: urokinase
- podocyte directional migration / motility (cultured podocytes [2]; cultured podocytes, addition of external urokinase): did not alter; also recorded: did not modify

From patent US9345739B2, “Methods and compositions for the treatment of proteinuric diseases” (The General Hospital Corporation, priority 2007, dated 2016)
